Assays:
[1] = biological target: T1, 4-hydroxy-tetrahydrodipicolinate synthase (Escherichia coli K-12, UniProt P0A6L2); experiment: (§1) Inhibition of Escherichia coli dihydrodipicolinate synthase
T1 sequence (P0A6L2 whole entry): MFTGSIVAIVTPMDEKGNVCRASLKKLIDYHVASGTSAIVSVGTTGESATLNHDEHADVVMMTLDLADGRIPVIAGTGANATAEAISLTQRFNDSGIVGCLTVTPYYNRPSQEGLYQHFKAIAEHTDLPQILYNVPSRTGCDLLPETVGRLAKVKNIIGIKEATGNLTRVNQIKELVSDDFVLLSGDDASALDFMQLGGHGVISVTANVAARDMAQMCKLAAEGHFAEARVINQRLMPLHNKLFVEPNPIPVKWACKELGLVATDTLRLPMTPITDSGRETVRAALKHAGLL

[2] = Reversible competitive inhibition of Bacillus subtilis PCI-219 dihydrodipicolinate synthase using DL-ASA as substrate after 10 mins by double reciprocal plot analysis
[3] = Reversible competitive inhibition of Bacillus subtilis PCI-219 dihydrodipicolinate synthase using pyruvate as substrate after 10 mins by double reciprocal plot analysis
[4] = biological target: 4-hydroxy-tetrahydrodipicolinate synthase (Mycobacterium tuberculosis, UniProt P9WP25); experiment: Reversible inhibition of recombinant N-terminal His-6 tagged Mycobacterium tuberculosis dihydrodipicolinate synthase using (S)-ASA as substrate preincubated for 5 mins followed by substrate addition measured over 10 mins by spectrophotometric analysis
Chain of 4-hydroxy-tetrahydrodipicolinate synthase (Mycobacterium tuberculosis, UniProt P9WP25) (P9WP25 whole entry): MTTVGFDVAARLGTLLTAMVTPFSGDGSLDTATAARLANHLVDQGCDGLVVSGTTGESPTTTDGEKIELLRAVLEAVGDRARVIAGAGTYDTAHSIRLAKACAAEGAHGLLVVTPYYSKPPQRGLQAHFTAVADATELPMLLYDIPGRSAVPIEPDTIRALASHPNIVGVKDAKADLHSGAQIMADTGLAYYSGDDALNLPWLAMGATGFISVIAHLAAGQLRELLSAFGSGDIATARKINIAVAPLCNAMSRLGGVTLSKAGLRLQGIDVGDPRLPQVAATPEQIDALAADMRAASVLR

[5] = biological target: T2, 4-hydroxy-tetrahydrodipicolinate synthase (Escherichia coli K-12) (UniProt P0A6L2); experiment: Competitive inhibition of Escherichia coli dihydrodipicolinate synthase using ASA as substrate
T2 sequence (whole entry): T1 sequence (P0A6L2 whole entry)

[6] = biological target: T2, 4-hydroxy-tetrahydrodipicolinate synthase (Escherichia coli K-12); experiment: Competitive inhibition of Escherichia coli dihydrodipicolinate synthase using pyruvate as substrate
[7] = biological target: T2, 4-hydroxy-tetrahydrodipicolinate synthase (Escherichia coli K-12); experiment: Uncompetitive inhibition of Escherichia coli dihydrodipicolinate synthase using DL-ASA as substrate
[8] = biological target: T1, 4-hydroxy-tetrahydrodipicolinate synthase; experiment: Reversible inhibition of Escherichia coli dihydrodipicolinate synthase using pyruvate as substrate
[9] = biological target: T1, 4-hydroxy-tetrahydrodipicolinate synthase; experiment: Reversible inhibition of Escherichia coli dihydrodipicolinate synthase using ASA as substrate
[10] = biological target: T2, 4-hydroxy-tetrahydrodipicolinate synthase (Escherichia coli K-12); experiment: Competitive inhibition of Escherichia coli dihydrodipicolinate synthase using DL-ASA as substrate
[11] = biological target: T2, 4-hydroxy-tetrahydrodipicolinate synthase (Escherichia coli K-12); experiment: as §1
[12] = biological target: T1, 4-hydroxy-tetrahydrodipicolinate synthase; experiment: Inhibition of Escherichia coli dihydrodipicolinate synthase assessed as inhibitory dissociation constant using ASA as substrate
[13] = biological target: 4-hydroxy-tetrahydrodipicolinate synthase (Mycobacterium tuberculosis) (UniProt P9WP25); experiment: Inhibition of recombinant N-terminal His-6 tagged Mycobacterium tuberculosis dihydrodipicolinate synthase using (S)-ASA as substrate preincubated for 5 mins followed by substrate addition measured over 10 mins by spectrophotometric analysis relative to control
Chain of 4-hydroxy-tetrahydrodipicolinate synthase (Mycobacterium tuberculosis) (P9WP25 whole entry): as above

[14] = biological target: T2, 4-hydroxy-tetrahydrodipicolinate synthase (Escherichia coli K-12); experiment: Inhibition of Escherichia coli dihydrodipicolinate synthase at 4.6 mM relative to control
[15] = biological target: T2, 4-hydroxy-tetrahydrodipicolinate synthase (Escherichia coli K-12); experiment: Uncompetitive inhibition of Escherichia coli dihydrodipicolinate synthase using pyruvate as substrate
[16] = biological target: T2, 4-hydroxy-tetrahydrodipicolinate synthase (Escherichia coli K-12); experiment: Inhibition of Escherichia coli dihydrodipicolinate synthase at 1 mM relative to control
[17] = Inhibition of Campylobacter jejuni dihydrodipicolinate synthase
[18] = biological target: T2, 4-hydroxy-tetrahydrodipicolinate synthase (Escherichia coli K-12); experiment: Inhibition of Escherichia coli dihydrodipicolinate synthase at 1.2 mM relative to control
[19] = biological target: T1, 4-hydroxy-tetrahydrodipicolinate synthase; experiment: Reversible competitive inhibition of Escherichia coli dihydrodipicolinate synthase
[20] = Reversible inhibition of Campylobacter jejuni dihydrodipicolinate synthase

c1cc(-c2nnn[nH]2)nc(-c2nnn[nH]2)c1
IC50 [1]: 250 µM

COC(=O)c1cccc(C(=O)OC)n1
IC50 [1]: 700 µM

O=C(O)CCCCC(=O)C(=O)O
Ki [2]: 220 µM
Ki [3]: 160 µM
Ki [4]: 33 µM

COC(=N)c1cccc(C(=N)OC)n1
IC50 [1]: 200 µM

O=CCCC(=O)O
Kis [5]: 44 µM

CCC(=O)C(=O)O
Kis [6]: 0.83 mM
Kis [7]: 1.3 mM

O=C(O)C(=O)CBr [BROMOPYRUVATE]
Ki [8]: 160 µM

O=CC(=O)O
Kis [6]: 0.016 mM
Kii [7]: 0.028 mM

N[C@H]1CCOC1=O [HOMOSERINE LACTONE]
Ki [8]: 8000 to 15000 µM
Ki [9]: 12000 to 22000 µM

O=C(O)C(=O)CF
Kis [10]: 2 mM
Kis [6]: 0.22 mM

CC(=O)C(=O)O
Kic [11]: 54 µM
Kiuc [11]: 12 µM

N[C@@H](CCC(=O)O)C(=O)O [GLUTAMIC ACID]
Ki [12]: 9000 to 24000 µM

N#Cc1cccc(C#N)n1
IC50 [1]: 300 µM

N[C@@H](CC=O)C(=O)O
Kic [11]: 31 µM
Kiuc [11]: 26 µM

O=C(O)CCCCC(O)C(=O)O (stereo unspecified)
inhibition [13]: 74%

NC1CCCC1=O (stereo unspecified)
Ki [12]: 12000 to 24000 µM

NCCSC[C@H](N)C(=O)O
inhibition [14]: 50%
Kis [10]: 2.4 mM
Kii [7]: 4.7 mM
Kii [15]: 1.9 mM

N[C@@H](CC(=O)O)C(=O)O [ASPARTIC ACID]
Ki [9]: 90 to 140 µM
Ki [12]: 21000 to 39000 µM

NCCCC[C@H](N)C(=O)O [LYSINE]
inhibition [16]: 50%
Kis [10]: 0.2 mM
IC50 ([17]; read-out: IC50(app)): 65 µM
IC50 [1]: 180 µM

CCCC(=O)C(=O)O
Kis [6]: 0.7 mM
Kii [7]: 1.6 mM

O=C(O)c1cccc(C(=O)O)c1 [ISOPHTHALIC ACID]
Ki [1]: 5400 to 5600 µM

O=C(O)c1cccc(C(=O)O)n1 [DIPICOLINIC ACID]
inhibition [18]: 50%
IC50 [19]: 400 µM
Ki [1]: 11000 µM

O=C(O)C1=CCCC(C(=O)O)C1 (stereo unspecified)
IC50 [1]: 15000 µM

O=NN1CCC[C@H]1C(=O)O
IC50 [1]: 7500 µM

NCCCC[C@@](N)(CC[C@](N)(CCCCN)C(=O)O)C(=O)O
IC50 ([17]; read-out: IC50): 0.3 µM
Ki [20]: 0.14 µM

O=C(O)c1cccc(C(=O)O)[n+]1[O-]
IC50 [1]: 200 µM

O=NN1CCCCC1C(=O)O (racemic)
IC50 [1]: 3500 µM

From ChEMBL document CHEMBL4334427 (Medchemcomm, 2019)
